The source of these data is PMC9250534, “Synthesis and direct assay of large macrocycle diversities by combinatorial late-stage modification at picomole scale” (Nature Communications, 2022).

The assay has as its target MDM2 (Homo sapiens, UniProt Q00987). The assay is described as follows: MDM2 binding screen of Libraries 3 and 4: displacement of fluorescent probe F-M8 at 750 nM macrocycle. The gist of the method: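 Competition with nutlin-3a was run using the fluorescein conjugate. Library members came from scaffolds reacted 6 h at room temperature with carboxylic acids (20 equiv.), HBTU and DABCO in DMSO. Quenching was overnight in Tris-Cl pH 7.4 buffer with 0.01% Tween20.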

The mark [1] stands for this setting: Panel b, Library 3: 63 scaffolds combinatorially acylated with 15 carboxylic acids at 30 picomole scale, displacement of fluorescent peptide probe, macrocycle 750 nM.
The mark [2] stands for this setting: Panel c, Library 4: best nine scaffolds and 15 additional carboxylic acids, displacement of fluorescent probe.

Sequence of MDM2 (Q00987 whole entry): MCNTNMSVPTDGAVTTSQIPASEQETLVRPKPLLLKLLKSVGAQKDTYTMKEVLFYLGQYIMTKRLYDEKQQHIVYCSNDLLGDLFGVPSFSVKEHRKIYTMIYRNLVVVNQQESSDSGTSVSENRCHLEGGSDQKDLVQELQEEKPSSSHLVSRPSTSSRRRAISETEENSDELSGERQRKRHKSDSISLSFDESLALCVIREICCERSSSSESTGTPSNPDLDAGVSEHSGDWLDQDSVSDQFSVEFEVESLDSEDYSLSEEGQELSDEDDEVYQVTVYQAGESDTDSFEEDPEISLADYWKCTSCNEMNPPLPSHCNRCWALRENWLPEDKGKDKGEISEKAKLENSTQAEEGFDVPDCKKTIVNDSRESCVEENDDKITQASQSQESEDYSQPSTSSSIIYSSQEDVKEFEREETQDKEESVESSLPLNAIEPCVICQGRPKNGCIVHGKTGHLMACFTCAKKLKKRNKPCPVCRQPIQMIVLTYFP

Turning to `CN1C(=O)[C@H](CNC(=O)/C=C/c2ccc(Cl)cc2)NC(=O)[C@H]2CCCN(C2)C(=O)CCSSCCNC(=O)[C@@H]1Cc1c[nH]c2ccccc12` [X-Nip-Dap-NMe-Trp + Acid 108], the “fraction of fluorescent probe displaced” value under setting [1] came to 0.00133.

With `O=C(/C=C/c1ccc2ccccc2c1)NCCN1CC(=O)N[C@@H](Cc2c[nH]c3ccccc23)C(=O)NCCSSCCC(=O)NCC2(CC2)C1=O` [X-Amcp-N-Aeg-Trp + Acid 112], under setting [1], the “fraction of fluorescent probe displaced” value is on record as 0.041. Regarding `CC(Oc1cccc(Cl)c1)C(=O)O` (stereo not shown) [Acid 113], the “fraction of fluorescent probe displaced” value under setting [1] is -0.00533.

Regarding `O=C(/C=C/c1ccc(OCc2ccccc2)cc1)NCCN1CC(=O)N[C@@H](Cc2c[nH]c3ccccc23)C(=O)NCCSSCCC(=O)N2CCO[C@@H](C2)C1=O` [X-Cop-N-Aeg-Trp + Acid 110], under setting [1], the “fraction of fluorescent probe displaced” value is 0.015. On the same count and under the same terms, the value for `O=C(CCS(=O)(=O)c1ccccc1)NC[C@H]1NC(=O)[C@@H]2CN(CCO2)C(=O)CCSSCCNC(=O)[C@H](Cc2cccc3ccccc23)NC1=O` [X-Cop-D-Dap-1-NaI + Acid 114] was 0.008. For the compound `O=C(/C=C/c1ccc(F)cc1)NC[C@@H]1NC(=O)C2(CC2)CNC(=O)CCSSCCNC(=O)[C@H](Cc2c[nH]c3ccccc23)NC1=O` [X-Amcp-Dap-Trp + Acid 116], the “fraction of fluorescent probe displaced” value under setting [2] amounted to 0.077. For the compound `Cn1cc(C[C@@H]2NC(=O)CN(CCNC(=O)c3ccc4ccccc4c3)C(=O)[C@H]3CCCN(C3)C(=O)CCSSCCNC2=O)c2ccccc21` [X-Nip-N-Aeg-Me-Trp + Acid 107], the “fraction of fluorescent probe displaced” value under setting [1] turned out to be 0.011. Still for that read-out and setting: in the case of `O=C(/C=C/c1ccc2ccccc2c1)NCCN1CC(=O)N[C@@H](Cc2c[nH]c3cc(Cl)ccc23)C(=O)NCCSSCCC(=O)NCC2(CC2)C1=O` [X-Amcp-N-Aeg-Cl-Trp + Acid 112] it was -0.019; in that of `CN1C(=O)[C@H](CNC(=O)c2ccc(Cl)cc2)NC(=O)[C@@H]2CN(CCO2)C(=O)CCSSCCNC(=O)[C@@H]1Cc1c[nH]c2ccccc12` [X-Cop-Dap-NMe-Trp + Acid 25], -0.00533. Regarding `CC(C)c1ccc(C=CC(=O)NCC2NC(=O)C3CCCN(C3)C(=O)CCSSCCNC(=O)C(Cc3c[nH]c4ccccc34)NC2=O)cc1` (stereo not drawn) [X-Nip-Dap-Trp + Acid 127], under setting [2], the “fraction of fluorescent probe displaced” value was 0.313.

Consider `CN1C(=O)[C@H](CNC(=O)C2COc3ccccc3O2)NC(=O)[C@H]2CCCN(C2)C(=O)CCSSCCNC(=O)[C@@H]1Cc1c[nH]c2ccccc12` (stereo partly drawn) [X-Nip-Dap-NMe-Trp + Acid 115], for which the “fraction of fluorescent probe displaced” value under setting [1] is on record as -0.012. Still for that read-out and setting: in the case of `Cn1cc(C[C@@H]2NC(=O)CN(CCNC(=O)c3ccc(Cl)cc3)C(=O)[C@@H]3CN(CCO3)C(=O)CCSSCCNC2=O)c2ccccc21` [X-Cop-N-Aeg-Me-Trp + Acid 25] it was 0.028. Same read-out and setting: in the case of `CN1C(=O)C(CNC(=O)C2COc3ccccc3O2)NC(=O)C2(CC2)CNC(=O)CCSSCCNC(=O)C1Cc1c[nH]c2ccccc12` (mixture of isomers) [X-Amcp-D-Dap-NMe-Trp + Acid 115] it was 0.015; in that of `O=C(/C=C/c1ccc2ccccc2c1)NC[C@@H]1NC(=O)[C@@H]2CN(CCO2)C(=O)CCSSCCNC(=O)[C@H](Cc2cccc3ccccc23)NC1=O` [X-Cop-Dap-1-NaI + Acid 112], 0.021. As to `CN1C(=O)[C@@H](CNC(=O)c2ccc(Cl)cc2)NC(=O)[C@@H]2CN(CCO2)C(=O)CCSSCCNC(=O)[C@@H]1Cc1c[nH]c2ccccc12` [X-Cop-D-Dap-NMe-Trp + Acid 25], under setting [1], the “fraction of fluorescent probe displaced” value was -0.019.

Turning to `O=C(C=Cc1cccc(C(F)(F)F)c1)NCC1NC(=O)C2CN(CCO2)C(=O)CCSSCCNC(=O)C(Cc2c[nH]c3ccccc23)NC1=O` (stereo not drawn) [X-Cop-Dap-Trp + Acid 122], under setting [2], the “fraction of fluorescent probe displaced” value turned out to be 0.118. On the same count and under the same terms, the value for `O=C(O)c1cnc2ccccc2n1` [Acid 130] was 0.0035. With `O=C(O)c1ccc2ccccc2c1` [Acid 107], the “fraction of fluorescent probe displaced” value under setting [1] is -0.002. For the compound `O=C(/C=C/c1ccc2ccccc2c1)NC[C@H]1NC(=O)[C@H]2CCCN(C2)C(=O)CCSSCCNC(=O)[C@H](Cc2c[nH]c3cc(Cl)ccc23)NC1=O` [X-Nip-D-Dap-Cl-Trp + Acid 112], under setting [1], the “fraction of fluorescent probe displaced” value is on record as -0.00533. Take `CC(=Cc1ccccc1)C(=O)NCC1NC(=O)C2CCCN(C2)C(=O)CCSSCCNC(=O)C(Cc2c[nH]c3ccccc23)NC1=O` (stereo not drawn) [X-Nip-Dap-Trp + Acid 123]: under setting [2], the “fraction of fluorescent probe displaced” value is 0.044. Take `O=C(CCS(=O)(=O)c1ccccc1)NCCN1CC(=O)N[C@@H](Cc2cccc3ccccc23)C(=O)NCCSSCCC(=O)N2CCC[C@@H](C2)C1=O` [X-Nip-N-Aeg-1-NaI + Acid 114]: the “fraction of fluorescent probe displaced” value under setting [1] amounted to 0.008. Same read-out and setting: the value for `O=C(/C=C/c1ccc(Cl)cc1)NC[C@H]1NC(=O)[C@H]2CCCN(C2)C(=O)CCSSCCNC(=O)[C@H](Cc2c[nH]c3cc(Cl)ccc23)NC1=O` [X-Nip-D-Dap-Cl-Trp + Acid 108] was 0.00133.

As for `O=C(NC[C@@H]1NC(=O)[C@H]2CCCN(C2)C(=O)CCSSCCNC(=O)[C@@H](Cc2c[nH]c3ccccc23)NC1=O)c1ccc(Cl)cc1` [X-Nip-Dap-D-Trp + Acid 25], the “fraction of fluorescent probe displaced” value under setting [1] is -0.045. With `O=C(/C=C/c1ccc(OCc2ccccc2)cc1)NC[C@H]1NC(=O)[C@H]2CCCN(C2)C(=O)CCSSCCNC(=O)[C@H](Cc2c[nH]c3cc(Cl)ccc23)NC1=O` [X-Nip-D-Dap-Cl-Trp + Acid 110], under setting [1], the “fraction of fluorescent probe displaced” value came out at 0.008. On to `Cn1cc(CC2NC(=O)C(CNC(=O)C3CC3c3ccccc3)NC(=O)C3(CC3)CNC(=O)CCSSCCNC2=O)c2ccccc21` (stereo not shown) [X-Amcp-Dap-Me-Trp + Acid 105], for which the “fraction of fluorescent probe displaced” value under setting [1] was -0.021. For the compound `O=C1CN(CCNC(=O)C2COc3ccccc3O2)C(=O)[C@@H]2CN(CCO2)C(=O)CCSSCCNC(=O)[C@@H](Cc2c[nH]c3ccccc23)N1` (stereo partly drawn) [X-Cop-N-Aeg-D-Trp + Acid 115], the “fraction of fluorescent probe displaced” value under setting [1] is on record as -0.00533. Same read-out and setting: the value for `CC(Oc1cccc(Cl)c1)C(=O)NCCN1CC(=O)N[C@@H](Cc2c[nH]c3cc(Cl)ccc23)C(=O)NCCSSCCC(=O)N2CCC[C@@H](C2)C1=O` (stereo partly shown) [X-Nip-N-Aeg-Cl-Trp + Acid 113] was -0.019; that for `O=C1CCSSCCNC(=O)[C@H](Cc2c[nH]c3ccccc23)NC(=O)CN(CCNC(=O)c2ccc3ccccc3c2)C(=O)C2(CC2)CN1` [X-Amcp-N-Aeg-Trp + Acid 107] was 0.018; that for `CN1C(=O)CN(CCNC(=O)c2ccc(Cl)cc2)C(=O)C2(CC2)CNC(=O)CCSSCCNC(=O)[C@@H]1Cc1c[nH]c2ccccc12` [X-Amcp-N-Aeg-NMe-Trp + Acid 25] was -0.012. Consider `O=C(/C=C/c1ccc(OCc2ccccc2)cc1)NC[C@@H]1NC(=O)[C@@H]2CN(CCO2)C(=O)CCSSCCNC(=O)[C@H](Cc2c[nH]c3ccccc23)NC1=O` [X-Cop-Dap-Trp + Acid 110], for which the “fraction of fluorescent probe displaced” value under setting [1] was -0.012. Same read-out and setting: the value for `O=C(C=Cc1ccc(OCc2ccccc2)cc1)NCC1NC(=O)C2CN(CCO2)C(=O)CCSSCCNC(=O)C(Cc2ccc3ccccc3c2)NC1=O` [X-Cop-D-Dap-2-Nal + Acid 110] was 0.035.

As to `O=C(NC[C@@H]1NC(=O)[C@@H]2CN(CCO2)C(=O)CCSSCCNC(=O)[C@H](Cc2cccc3ccccc23)NC1=O)c1ccc(Cl)s1` [X-Cop-Dap-1-NaI + Acid 14], the “fraction of fluorescent probe displaced” value under setting [1] was 0.008. Regarding `O=C(/C=C/c1ccc(Cl)c(Cl)c1)NC[C@@H]1NC(=O)[C@H]2CCCN(C2)C(=O)CCSSCCNC(=O)[C@H](Cc2c[nH]c3ccccc23)NC1=O` [X-Nip-Dap-Trp + Acid 119], the “fraction of fluorescent probe displaced” value under setting [2] was determined as 0.435. Still for that read-out and setting: the value for `C/C(=C\c1ccccc1)C(=O)NC[C@@H]1NC(=O)[C@@H]2CN(CCO2)C(=O)CCSSCCNC(=O)[C@H](Cc2c[nH]c3cc(Cl)ccc23)NC1=O` [X-Cop-Dap-Cl-Trp + Acid 123] was 0.012. In the case of `CN1C(=O)[C@@H](CNC(=O)c2ccc(Cl)s2)NC(=O)C2(CC2)CNC(=O)CCSSCCNC(=O)[C@@H]1Cc1c[nH]c2ccccc12` [X-Amcp-D-Dap-NMe-Trp + Acid 14], the “fraction of fluorescent probe displaced” value under setting [1] stood at 0.008. On to `O=C1CCSSCCNC(=O)[C@H](Cc2ccc3ccccc3c2)NC(=O)[C@@H](CNC(=O)C2COc3ccccc3O2)NC(=O)C2(CC2)CN1` (stereo partly drawn) [X-Amcp-D-Dap-2-Nal + Acid 115], for which the “fraction of fluorescent probe displaced” value under setting [1] was 0.015. Take `O=C(CCS(=O)(=O)c1ccccc1)NC[C@@H]1NC(=O)[C@@H]2CN(CCO2)C(=O)CCSSCCNC(=O)[C@@H](Cc2c[nH]c3ccccc23)NC1=O` [X-Cop-Dap-D-Trp + Acid 114]: the “fraction of fluorescent probe displaced” value under setting [1] is recorded as 0.021. `CCOc1ccc(C=CC(=O)NCC2NC(=O)C3CN(CCO3)C(=O)CCSSCCNC(=O)C(Cc3cn(C)c4ccccc34)NC2=O)cc1` (stereo not drawn) [X-Cop-Dap-Me-Trp + Acid 117]: the “fraction of fluorescent probe displaced” value under setting [2] is 0.052.

On to `Cn1cc(C[C@@H]2NC(=O)[C@@H](CNC(=O)c3ccc(Cl)s3)NC(=O)C3(CC3)CNC(=O)CCSSCCNC2=O)c2ccccc21` [X-Amcp-D-Dap-Me-Trp + Acid 14], for which the “fraction of fluorescent probe displaced” value under setting [1] is recorded as -0.032.

Turning to `O=C1CCSSCCNC(=O)C(Cc2cccc3ccccc23)NC(=O)CN(CCNC(=O)C2COc3ccccc3O2)C(=O)C2(CC2)CN1` (mixture of isomers) [X-Amcp-N-Aeg-1-NaI + Acid 115], under setting [1], the “fraction of fluorescent probe displaced” value is -0.00533.

Take `O=C1CCSSCCNC(=O)[C@@H](Cc2c[nH]c3ccccc23)NC(=O)[C@H](CNC(=O)c2cccc(Oc3ccccc3)c2)NC(=O)C2(CC2)CN1` [X-Amcp-Dap-D-Trp + Acid 111]: under setting [1], the “fraction of fluorescent probe displaced” value was found to be 0.00133. On the same count and under the same terms, in the case of `Cn1cc(C[C@@H]2NC(=O)CN(CCNC(=O)/C=C/c3ccc4ccccc4c3)C(=O)[C@@H]3CN(CCO3)C(=O)CCSSCCNC2=O)c2ccccc21` [X-Cop-N-Aeg-Me-Trp + Acid 112] it was 0.028. `O=C(O)/C=C/c1ccc(Cl)c(Cl)c1` [Acid 119]: the “fraction of fluorescent probe displaced” value under setting [2] is given as 0.012.
